One series concerns 697. The experiment in a line: Cytotoxicity against human 697 cells after 48 hrs by CellTiter 96 aqueous one solution assay. It is filed as cell-based. Particulars: Homo sapiens, 697, 48 h.
Series [1] can be described thus: Stability in rat plasma assessed as parent compound remaining at 100 uM after 4 hrs by LC-MS/MS analysis. It is filed as ADME, cell-free. The following applies: read-out: Stability.
Series [2] can be described thus: Stability in human plasma assessed as parent compound remaining at 100 uM after 4 hrs by LC-MS/MS analysis. Format: ADME, cell-free. The following applies: read-out: Stability.
In series [3] the target is T1, Protein deacetylase HDAC6 (Homo sapiens, UniProt Q9UBN7).
T1 sequence (Q9UBN7 whole entry): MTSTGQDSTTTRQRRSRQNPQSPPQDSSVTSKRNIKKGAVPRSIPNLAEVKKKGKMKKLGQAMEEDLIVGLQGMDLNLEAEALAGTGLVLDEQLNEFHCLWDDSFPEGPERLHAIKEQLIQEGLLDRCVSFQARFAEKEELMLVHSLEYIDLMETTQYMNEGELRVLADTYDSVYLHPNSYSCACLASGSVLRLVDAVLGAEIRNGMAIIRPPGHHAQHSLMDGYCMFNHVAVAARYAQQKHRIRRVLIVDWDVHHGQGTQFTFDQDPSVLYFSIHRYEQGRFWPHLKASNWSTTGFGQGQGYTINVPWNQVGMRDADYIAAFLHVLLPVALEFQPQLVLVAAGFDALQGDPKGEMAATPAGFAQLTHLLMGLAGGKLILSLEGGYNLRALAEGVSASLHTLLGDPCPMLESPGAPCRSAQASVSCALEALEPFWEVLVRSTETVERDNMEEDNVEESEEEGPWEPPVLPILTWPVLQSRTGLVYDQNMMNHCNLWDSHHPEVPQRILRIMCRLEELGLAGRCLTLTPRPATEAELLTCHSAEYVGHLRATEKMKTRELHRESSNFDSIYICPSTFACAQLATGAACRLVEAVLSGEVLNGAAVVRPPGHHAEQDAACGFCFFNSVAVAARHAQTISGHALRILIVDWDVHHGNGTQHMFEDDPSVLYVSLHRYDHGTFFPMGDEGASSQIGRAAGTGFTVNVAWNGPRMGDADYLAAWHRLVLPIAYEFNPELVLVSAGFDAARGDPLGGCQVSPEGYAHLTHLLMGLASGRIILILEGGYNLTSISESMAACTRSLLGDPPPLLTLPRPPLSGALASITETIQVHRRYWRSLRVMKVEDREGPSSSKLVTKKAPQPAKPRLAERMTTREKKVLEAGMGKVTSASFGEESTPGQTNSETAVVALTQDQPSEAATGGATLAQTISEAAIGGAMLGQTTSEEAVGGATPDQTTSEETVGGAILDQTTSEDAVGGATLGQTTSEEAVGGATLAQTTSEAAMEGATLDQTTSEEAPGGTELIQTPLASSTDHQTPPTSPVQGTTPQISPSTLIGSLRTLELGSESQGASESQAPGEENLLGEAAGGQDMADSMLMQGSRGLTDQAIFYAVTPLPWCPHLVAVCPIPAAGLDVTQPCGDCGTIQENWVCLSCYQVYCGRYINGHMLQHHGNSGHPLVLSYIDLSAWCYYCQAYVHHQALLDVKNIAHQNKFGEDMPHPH
Kind of series: biochemical.
Description: Inhibition of recombinant full length human N-terminal GST-tagged HDAC6 expressed in baculovirus infected sf9 insect cells pretreated with compound followed by Fluor de Lys deacetylase substrate addition by fluorescence method

The next series relates to PBMC. Kind of series: Cytotoxicity against human PBMC cells after 72 hrs by CellTiter 96 aqueous one solution assay. It is filed as cell-based.
Series [4] can be described thus: Stability in human liver S9 fraction assessed as parent compound remaining at 5 uM after 90 mins in presence of NADPH by LC-MS/MS analysis. It is filed as ADME, subcellular. The following applies: read-out: Stability.
Series [5] in a line: Stability in rat liver S9 fraction assessed as parent compound remaining at 5 uM after 90 mins in presence of NADPH by LC-MS/MS analysis. Format: ADME, subcellular. Particulars: read-out: Stability.

As to `O=C(NO)c1ccc(CC(=O)N(CCO)c2ccccc2)cc1`, the concentration for half-maximal inhibition (IC50) with 697 came to 8330 nM. Moreover, the remaining at 4 h, 100 µM in series [1] turned out to be 45%; in series [2] it was 79%.

Turning to `CN1CCc2c(c3ccccc3n2Cc2ccc(C(=O)NO)cc2)C1` [TUBASTATIN A], in the series on 697, half-maximal inhibition (IC50) required 2010 nM. In addition, the remaining at 4 h, 100 µM came to 38% in series [1] and 98% in series [2].

In series [3], `O=C(NO)c1ccc(Cc2noc(-c3ccccc3)n2)cc1` registered an IC50 of 6 nM.

As for `O=C(NO)c1ccc(Cn2cccn2)cc1`, the concentration for half-maximal inhibition (IC50) in series [3] is 102 nM.

For the molecule `O=C(NO)c1ccc(Sc2nnc(-c3ccccc3)s2)cc1`, the IC50 in series [3] came out at 6 nM.

The molecule `O=C(NO)c1ccc(Sc2ncc(-c3ccccc3)s2)cc1` came in with a half-inhibitory concentration (IC50) in series [3] of 62 nM.

`O=C(NO)c1ccc(Nc2nnc(-c3ccccc3)s2)cc1` returned an IC50 in series [3] of 66 nM.

Turning to `CCCCN(Cc1ccc(C(=O)NO)cc1)C(=O)Nc1ccccc1` [NEXTURASTAT A], 401 nM corresponded to half-maximal inhibition with 697 (IC50). Further, the figures for the remaining at 4 h, 100 µM in series [1] and in series [2] were 40% and 100%, respectively.

As to `O=C(NO)c1cc(F)c(Cn2nnc(-c3ncccn3)n2)c(F)c1`, the IC50 in the series on 697 and with PBMC was greater than 1000 nM throughout. Also, the figures for the remaining at 4 h, 100 µM in series [1] and in series [2] were 78% and 93%, respectively. Besides, the figures for the remaining at […], 5 µM in series [4] and in series [5] were 89% and 96%, respectively.

In the case of `Cc1cc(-c2nnc(Sc3ccc(C(=O)NO)c(F)c3)n2C)nn1C`, the concentration for half-maximal inhibition (IC50) in series [3] is 2240 nM.

Turning to `CCN(CC)Cc1ccc2cc(COC(=O)Nc3ccc(C(=O)NO)cc3)ccc2c1` [GIVINOSTAT], the IC50 with 697 was 100 nM; with PBMC, 313 nM. The figures for the remaining at 4 h, 100 µM in series [1] and in series [2] were 72% and 97%, respectively. Besides, the remaining at […], 5 µM in series [4] came to 83%; in series [5], 6%.

In turn, `O=C(NO)c1ccc(Cc2nnc(-c3ccccc3)[nH]2)cc1` registered an IC50 in series [3] of 5 nM.

The molecule `O=C(NO)c1ccc(Cn2nnnc2-c2ccccc2)cc1` showed an IC50 in series [3] of 9 nM.

In the series with 697, `O=C(CCCCCCNC(=O)c1cnc(N(c2ccccc2)c2ccccc2)nc1)NO` [RICOLINOSTAT] gave an IC50 of 201 nM. The figures for the remaining at 4 h, 100 µM in series [1] and in series [2] were 91% and 100%, respectively.

For the molecule `O=C(NO)c1cnc(NC2(c3ccccc3)CC2)nc1`, in the series with 697, half-maximal inhibition (IC50) required 3390 nM. Moreover, the remaining at 4 h, 100 µM in series [1] turned out to be 12%; in series [2], 100%.

Turning to `Cn1c(Cc2ccc(C(=O)NO)cc2)nnc1-c1ccccc1`, in series [3], the half-inhibitory concentration (IC50) amounted to 17 nM.

`Cc1cc(-c2nnc(Sc3c(F)c(F)c(C(=O)NO)c(F)c3F)n2C)nn1C` registered an IC50 in series [3] of 2530 nM.

For the molecule `O=C(NO)c1ccc(-c2nnc(-c3ccccc3)o2)cc1`, inhibition in series [3] was half-maximal at 660 nM (IC50).

The molecule `O=C(NO)c1ccc(Cc2nnc(-c3ccccc3)s2)cc1` returned an IC50 in series [3] of 16 nM.

For `O=C(NO)c1ccc(Sc2nnc(-c3ccccc3)o2)cc1`, in series [3], the IC50 came to 6 nM.

Take `COc1ccc(CC(=O)N[C@@H](Cc2cscn2)C(=O)Nc2ccc(C(=O)NO)cc2)cc1OC`: the half-inhibitory concentration (IC50) in series [3] is 5 nM; in the series with 697 it was greater than 10000 nM. The remaining at 4 h, 100 µM in series [1] turned out to be 18%; in series [2] it was 100%.

In series [3], `Cc1csc(Nc2ccc(C(=O)NO)cc2)n1` showed a half-inhibitory concentration (IC50) of 137 nM.

A word on the IC50: it is the point on the concentration scale where inhibition reaches its midpoint. The low end stands for greater potency in that assay, the high end for weaker potency in that assay.

The values are drawn from ChEMBL document CHEMBL4414648, “Novel Benzohydroxamate-Based Potent and Selective Histone Deacetylase 6 (HDAC6) Inhibitors Bearing a Pentaheterocyclic Scaffold: Design, Synthesis, and Biological Evaluation” (J Med Chem, 2019).
